Measured values reported in patent US6893846B2, “Primers for use in detecting beta-lactamases” (priority 1998, dated 2005).

How the values were obtained:
Test in all cases: PCR amplification with TEM and SHV primers
SHV and TEM genes [1] = system: SHV and TEM genes; design: species or system Proteus mirabilis; conditions: P. mirabilis Pit 85 (pI 5.6, TEM-26-type)
Method: (§1) The organisms were inoculated into 5 ml of Luria Bertani (LB) broth (Difco, Detroit, Mich.) and incubated for 20 hours at 37° C. with shaking. Cells from 1.5 ml of overnight culture were harvested by centrifugation at 17,310×g in an Hermle centrifuge for 5 minutes. After the supernatant was decanted, the pellet was resuspended in 500 μl of distilled water. The cells were lysed by heating at 95° C. for 10 minutes and cellular debris was removed by centrifugation for 5 minutes at 17,310×g. The supernatant was used as source of template for amplification.
The following oligonucleotide primers specific for the SHV and TEM genes were designed by using MacVector version 4.5 (Kodak/IBI): SHV genes: A [5′-([…])-3′] (SEQ ID NO:10) and B [5′-([…])-3′] (SEQ ID NO:11) corresponding to nucleotide numbers 103 to 121 and 988 to 970, respectively, of Mercier et al., Antibicrob. Agents Chemother. […]
PCR amplifications were carried out on a DNA Thermal Cycler 480 instrument (Perkin-Elmer, Cetus, Norwalk, Conn.) using the Gene Amp DNA amplification kit containing AmpliTaq polymerase (Perkin Elmer, Roche Molecular Systems, Inc., Branchburg, N.J.). […] The PCR products (1/10 volume) were analyzed by electrophoresis using 1.4% agarose gels in TAE buffer (0.04 M Tris-acetate, 0.002 M EDTA [pH 8.5]). […]

SHV and TEM genes [2] = system: SHV and TEM genes; design: species or system Klebsiella pneumoniae
Method: as §1
(§2) The following oligonucleotide primers specific for the SHV and TEM genes were designed by using MacVector version 4.5 (Kodak/IBI): SHV genes: A [5′-([…])-3′] (SEQ ID NO:10) and B [5′-([…])-3′] (SEQ ID NO:11) corresponding to nucleotide numbers 103 to 121 and 988 to 970, respectively, of Mercier et al., Antibicrob. Agents Chemother. 34:1577-1583 (1990)); TEM genes: C [5′-([…])-3′ (SEQ ID NO:5) and D [5′-([…])-3′ (SEQ ID NO:1) corresponding to nucleotide numbers 90 to 105 and 1062 to 1042, respectively, of Sutcliff et al., Proc. Nat. Aca. Sci. USA, 75:3737-3741 (1978). Primers A and B amplified a 885 base pair fragment while primers C and D amplified a 971 base pair fragment. The specificity of the SHV and TEM primers for amplification of SHV and TEM genes respectively was tested by using the following beta-lactamase controls; TEM-I (pACYC177), MIR-1 (from K. pneumoniae96D) and SHV-7 (pCLL3410).
PCR amplifications were carried out on a DNA Thermal Cycler 480 instrument (Perkin-Elmer, Cetus, Norwalk, Conn.) using the Gene Amp DNA amplification kit containing AmpliTaq polymerase (Perkin Elmer, Roche Molecular Systems, Inc., Branchburg, N.J.). The composition of the reaction mixture was as follows: 10 mM Tris-HCl (pH 8.3), 50 mM KCl, 0.1% TRITON X-100, 1.5 mM MgCl2, 0.2 mM (each) of the four deoxynucleoside triphosphates, and 1.2 U of AmpliTaq in a total volume of 49 μl. A total of 1 μl of sample lysate was added to the reaction mixture, and was centrifuged briefly before […] of mineral oil was layered on the surface. The PCR program consisted of an initial denaturation step at 96° C. for 15 seconds; followed by 24 cycles of DNA denaturation at 96° C. for 15 seconds, primer annealing at 50° C. for 15 seconds and primer extension at 72° C. for 2 minutes. After the last cycle the products were stored at 4° C. The PCR products (1/10 volume) were analyzed by electrophoresis using 1.4% agarose gels in TAE buffer (0.04 M Tris-acetate, 0.002 M EDTA [pH 8.5]). The gels were stained with ethidium bromide and the PCR products were visualized with ultra-violet light. […] The larger product which corresponded to the expected size of the SHV specific product was gel purified using a 1.4% agarose in TAE gel and the purified PCR product was used for sequence analysis.

SHV and TEM genes [3] = system: SHV and TEM genes; design: species or system Escherichia coli
Method: as §1, §2
PCR amplifications were carried out on a DNA Thermal Cycler 480 instrument (Perkin-Elmer, Cetus, Norwalk, Conn.) using the Gene Amp DNA amplification kit containing AmpliTaq polymerase (Perkin Elmer, Roche Molecular Systems, Inc., Branchburg, N.J.). The composition of the reaction mixture was as follows: 10 mM Tris-HCl (pH 8.3), 50 mM KCl, 0.1% TRITON X-100, 1.5 mM MgCl2, 0.2 mM (each) of the four deoxynucleoside triphosphates, and 1.2 U of AmpliTaq in a total volume of 49 μl. A total of 1 μl of sample lysate was added to the reaction mixture, and was centrifuged briefly before […] of mineral oil was layered on the surface. The PCR program consisted of an initial denaturation step at 96° C. for 15 seconds; followed by 24 cycles of DNA denaturation at 96° C. for 15 seconds, primer annealing at 50° C. for 15 seconds and primer extension at 72° C. for 2 minutes. After the last cycle the products were stored at 4° C. The PCR products (1/10 volume) were analyzed by electrophoresis using 1.4% agarose gels in TAE buffer (0.04 M Tris-acetate, 0.002 M EDTA [pH 8.5]). The gels were stained with ethidium bromide and the PCR products were visualized with ultra-violet light. […]

Measured: Amplification with primers

SHV primers: primer pair A (SEQ ID NO:10) and B (SEQ ID NO:11) specific for the SHV genes (DNA 1 CACTCAAGGATGTATTGTG; DNA 2 TTAGCGTTGCCAGTGCTCG; listed as DNA, chemistry not given here)
Yes: SHV and TEM genes [2]; K. pneumoniae Pit 82 (pI 8.2, SHV-5) | SHV and TEM genes [2]; K. pneumoniae Pit 100 (pI 7.6, SHV-2) | SHV and TEM genes [3]; E. coli Pit 56 (pI 7.6, SHV-2)
No: SHV and TEM genes [1] | SHV and TEM genes [2]; K. pneumoniae Pit 16 (pI 5.6, TEM-26-type) | SHV and TEM genes [3]; E. coli Pit 64 (pI 5.6, TEM-26-type)
